The test system of this assay is T1, GhHxk9.
T1 construct: codon-optimized synthetic gene, E. coli BL21(DE3), pET-28-14His-bdSumo, tag cut off by bdSENP1, tagless wild-type; 51 kDa; printed residues: L398-K404 TLKDGEK, S132-R141 SEGLHFSPDR
Nature of the assay: coupled assay with E. coli glucose-6-phosphate dehydrogenase, absorbance at […] nm. The class given is biochemical, Gossypium hirsutum. The following applies: 1 mM ATP, 10 mM MgCl2, 1 mM NADP+, 100 mM Tris pH 7.5, 30 °C; read-out: apparent Km.

1 compound from PMC10561253, “2-NBDG Uptake in Gossypium hirsutum in vitro ovules: exploring tissue-specific accumulation and its impact on hexokinase-mediated glycolysis regulation” (Frontiers in Plant Science, 2023) can be followed below.

In general, Km refers to the concentration of substrate that gives half-maximal velocity. `OC[C@H]1OC(O)[C@H](O)[C@@H](O)[C@@H]1O` (stereo partly drawn) [D-glucose]: the Km is 37 ± 19.8 µM.
